Patent publication US20100003711A1, “Methods to identify therapeutic agents” (THE SCRIPPS RESEARCH INSTITUTE, priority 2005, published 2010)

What was measured:
[1] = system: WI-L2 human B-lymphocyte line; assay: LDH release cytotoxicity assay, WI-L2; assay type: cell-based; conditions: B-cell (WI-L2) cell line, concentration range of FIG. 6A (0-100 μM)
Method: (§1) Cytotoxicity assays. WI-L2 human B-lymphocyte line, HAAE-1 human abdominal aortic endothelial line, MH-S murine alveolar macrophage line, and J774A.1 murine tissue macrophage line were obtained from the ATCC. Human aortic endothelial cells (HAEC) and human vascular smooth muscle cells (VSMS) were obtained from Cambrex Bio Science. Jurkat E6-1T-lymphocytes were kindly provided by Dr. J. Kaye (The Scripps Research Institute). Cells were cultured in ATCC-recommended media with 10% fetal calf serum. Cells were incubated in a controlled atmosphere at 37° C., with 5 or 7% CO2. For lactate dehydrogenase (LDH) release assays, adherent cells were harvested either by addition of 0.05% trypsin/EDTA or by scraping. The cells obtained were seeded onto 96-well microtiter plates (25,000 cells/well) and allowed to recover for 24-48 h. […] Cytotoxicity was then determined by measuring lactate dehydrogenase (LDH) release from cells in culture. […] 100% Cytotoxicity was defined as the maximum amount of LDH released by dead cells as shown by trypan blue exclusion, or the highest amount of LDH detected upon lysis of cells by 0.9% Triton X-100. The IC50 values were determined by comparison of the raw duplicate data for concentration versus cytotoxicity (%) to non-linear regression analysis (Hill plot) using Graphpad v3.0 software for Macintosh. […]

VCAM-1 (CD106) = assay: Endothelial adhesion molecule expression by ELISA, VCAM-1; assay type: cell-based, human; conditions: HAAE-1, not complexed with LDL
Method: (§2) Endothelial cell surface adhesion molecule expression was measured by ELISA, using anti-human CD54 (ICAM-1), CD106 (VCAM-1) and CD62E (E-Selectin) antibodies (Leinco Technologies, Inc., St. Louis, Mo.). The ELISA method was modified from previously described procedures.
(§3) Cells were then incubated with antibodies to VCAM-1, E-selectin, or ICAM-1 diluted 1:400 in PBS containing 5% FCS at 37° C. for 30 min. Wells were washed two times with PBS, then incubated with horseradish peroxidase (HRP)-conjugated goat anti-mouse IgG (Southern Biotechnology Associates, Birmingham, Ala., USA) in PBS/5% FCS at 37° C. for 30 min. The wells were washed four times with PBS, then incubated with H2O2/3,3′,5,5′-tetramethyl-benzidine peroxidase substrate (Pierce Chemical, Rockford, Ill., USA) for 30 min in the dark. The reaction was stopped by adding 25 μl of 8 N H2SO4, and the plates read on a microplate reader, blanking on wells stained with only secondary antibody. Each assay was performed in triplicate and the data are reported as the mean±SEM as a percentage of the expression level of the vehicle. To study the effect of cholesterol ozonation product 5a concentration (5-50 μM) on E-selectin expression, the assay was performed in an identical fashion as described above, with each point being the mean±SEM of at least duplicate measurements.

E-selectin (CD62E) = assay: Endothelial adhesion molecule expression by ELISA, E-selectin; assay type: cell-based, human; conditions: HAAE-1, not complexed with LDL
Method: as §2, §3

ICAM-1 (CD54) = assay: Endothelial adhesion molecule expression by ELISA, ICAM-1; assay type: cell-based, human; conditions: HAAE-1, not complexed with LDL
Method: as §2, §3

[2] = system: T-lymphocyte cell line (Jurkat E6.1); assay: LDH release cytotoxicity assay, Jurkat; assay type: cell-based; conditions: concentration range of FIG. 6B (0-100 μM)
Method: as §1

THP-1 monocytes = assay: Monocyte morphology changes (differentiation into macrophages); assay type: cell-based, human; conditions: 12.5 or 25 μM, up to 7 days
Method: THP-1 monocytes in suspension were plated in 8-well chambered slides. […] Media containing appropriate treatment compounds was replaced after 4 days. After 4 days treatment, morphologic changes of the adherent cells were assessed by phase-contrast microscopy and photographed using an Olympus Microfire digital camera.

Structure (SMILES): CC(C)CCC[C@@H](C)[C@H]1CC[C@H]2[C@@H]3CC=C4C[C@@H](O)CC[C@]4(C)[C@H]3CC[C@]12C [compound 3, cholesterol, reference compound]
- cytotoxicity [1]: No cytotoxicity
- integrin expression (VCAM-1) (VCAM-1 (CD106)): no effects
- selectin (E-selectin) expression (E-selectin (CD62E)): no effects
- integrin expression (ICAM-1) (ICAM-1 (CD54)): no effects
- cytotoxicity [2]: No cytotoxicity
- THP-1 monocyte differentiation into macrophages (adherence, morphology) (THP-1 monocytes): neither became adherent nor developed the aforementioned morphological changes
